In PMC3497017, “Antioxidant and Anti-Protease Activities of Diazepinomicin from the Sponge-Associated Micromonospora Strain RV115” (Marine Drugs, 2012) one finds IC50 data, which are given here for 1 molecule.

This assay has as its target T1, human cathepsin L (Homo sapiens, UniProt P07711).
T1 construct: gene CTSL
The experiment in a line: fluorogenic Cbz-Phe-Arg-AMC hydrolysis with inner-filter correction, confirmed by HPLC-based assay. The class given is biochemical.

For orientation: IC50 means the midpoint of a concentration-inhibition curve. A higher IC50 goes with weaker potency in that assay.

Molecules are shown by their SMILES.

T1 sequence (P07711 114-288): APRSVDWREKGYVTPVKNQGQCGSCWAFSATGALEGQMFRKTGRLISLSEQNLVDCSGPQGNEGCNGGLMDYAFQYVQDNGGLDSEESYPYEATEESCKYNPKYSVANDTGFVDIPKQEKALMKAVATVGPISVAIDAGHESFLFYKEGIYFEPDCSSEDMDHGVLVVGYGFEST
T1 sequence (P07711 292-333): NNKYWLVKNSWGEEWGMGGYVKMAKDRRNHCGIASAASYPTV

In the case of `CC(C)=CCC/C(C)=C/CC/C(C)=C/CN1C(=O)c2cccc(O)c2Nc2c(O)cc(O)cc21` [compound 1, diazepinomicin], the IC50 stood at 72.4 ± 5.3 µM.
